Earlier results as cited in patent US11717549B2, “Steviol glycoside solubility enhancers” (CARGILL, INCORPORATED, priority 2017, dated 2023).

Conditions: temperature 0 ° C.; cited from earlier work

| Compound | solubility (ppm) |
| --- | --- |
| O=C(O)C(=O)c1ccccc1 [alpha-oxobenzeneacetic acid] | 4.79E+05 ppm |

Same assay, conditions: temperature 13.5 ° C.; cited from earlier work

| Compound | solubility (ppm) |
| --- | --- |
| CC(C)(C(=O)O)C(C)(C)C(=O)O [tetramethylbutanedioic acid] | 4.78E+03 ppm |

Same assay, conditions: temperature 14 ° C.; cited from earlier work

| Compound | solubility (ppm) |
| --- | --- |
| O=C(O)c1cccc(Cl)c1C(=O)O [3-chlorophthalic acid] | 2.08E+04 ppm |

Same assay, conditions: temperature 14.9 ° C.; cited from earlier work

| Compound | solubility (ppm) |
| --- | --- |
| Nc1cccc(C(=O)O)c1 [aniline-3-carboxylic acid] | 5.87E+03 ppm |

Same assay, conditions: temperature 15 ° C.; cited from earlier work

| Compound | solubility (ppm) |
| --- | --- |
| O=C(O)C(=O)c1ccccc1C(=O)O [phthalonic acid] | 3.49E+05 ppm |
| O=C(O)c1cc2c(cc1C(=O)O)OCO2 [hydrastic acid] | 5.96E+03 ppm |

Same assay, conditions: temperature 16 ° C.; cited from earlier work

| Compound | solubility (ppm) |
| --- | --- |
| O=C(O)c1cc(C(=O)O)cc(C(=O)O)c1 [1,3,5-benzenetricarboxylic acid] | 3.79E+03 ppm |
| O=C(O)c1cc(C(=O)O)c(C(=O)O)cc1C(=O)O [pyromellitic acid] | 1.40E+04 ppm |

Same assay, conditions: temperature 17 ° C.; cited from earlier work

| Compound | solubility (ppm) |
| --- | --- |
| CC1=NN(c2ccc([N+](=O)[O-])cc2)C(=O)C1[N+](=O)[O-] (stereo not shown) [picrolonic acid] | 8.92E+03 ppm |

Same assay, conditions: temperature 18 ° C.; cited from earlier work

| Compound | solubility (ppm) |
| --- | --- |
| O=C1c2cc(S(=O)(=O)O)ccc2C(=O)c2c(Cl)cccc21 [1,6-chloroanthraquinone sulfonic acid] | 1.67E+05 ppm |
| 1,7-chloroanthraquinone sulfonic acid | 1.67E+05 ppm |
| O=C1c2cc(S(=O)(=O)O)ccc2C(=O)c2c1cccc2S(=O)(=O)O [1,6-anthraquinone disulfonic acid] | 3.33E+05 ppm |
| O=C1c2cccc(S(=O)(=O)Nc3ccccc3)c2C(=O)c2c1cccc2S(=O)(=O)Nc1ccccc1 [1,8-anthraquinone disulfonic acid anilide] | 2.27E+04 ppm |
| 1,5-anthraquinone disulfonic acid anilide | 3.97E+03 ppm |

Same assay, conditions: temperature 20 ° C.; cited from earlier work

| Compound | solubility (ppm) |
| --- | --- |
| Nc1ccccc1C(=O)O [aniline-2-carboxylic acid] | 3.48E+03 ppm |
| Cc1cc(S(=O)(=O)O)ccc1N [4-amino-3-methylbenzene sulfonic acid] | 4.98E+03 ppm |
| O=C(O)CCc1ccccc1 [benzenepropanoic acid] | 5.87E+03 ppm |
| CC(C)C1C(=O)NC(=O)NC1=O [isopropylbarbituric acid] | 5.89E+03 ppm |

Same assay, conditions: temperature 21 ° C.; cited from earlier work

| Compound | solubility (ppm) |
| --- | --- |
| CCNC(=O)COC(=O)c1ccccc1OC(C)=O [benzoic acid, 2-(acetyloxy)-, 2-(ethylamino)-2-oxoethyl ester] | 5.49E+03 ppm |
| O=C(O)CCCCCCCCCC(=O)O [undecanedioic acid] | 5.07E+03 ppm |
| CN(CCO)C(=O)COC(=O)c1ccccc1O [benzoic acid, 2-hydroxy-, 2-[(2-hydroxyethyl)methylamino]-2-oxoethyl ester] | 6.26E+03 ppm |

Same assay, conditions: temperature 25 ° C.; cited from earlier work

| Compound | solubility (ppm) |
| --- | --- |
| CC(C)C=CCCC(=O)O [6-methyl-4-heptenoic acid] | 4.64E+03 ppm |
| O=C(O)c1ccc([N+](=O)[O-])c([N+](=O)[O-])c1 [3,4-dinitrobenzoic acid] | 6.66E+03 ppm |
| COc1ccccc1C(=O)O [2-methoxybenzoic acid] | 4.18E+03 ppm |
| CCC(=O)O[C@@H](C(=O)O)c1ccccc1 [propionyl-r-mandelic acid] | 5.15E+03 ppm |
| CCC=CCC(C)C(=O)O (stereo not shown) [2-methyl-4-heptenoic acid] | 4.64E+03 ppm |
| CC(=O)O[C@@H](C(=O)O)c1ccccc1 [acetyl-r-mandelic acid] | 1.11E+04 ppm |
| CCCCC(C)C(=O)O (racemic) [2-methylhexanoic acid] | 6.07E+03 ppm |
| CCCCCCCCC(C(=O)O)C(=O)O [octylpropanedioic acid] | 5.53E+03 ppm |
| CC=CCCCC(=O)O [5-heptenoic acid] | 6.79E+03 ppm |
| CCCC(=CC(=O)O)CC [3-ethyl-2-hexenoic acid] | 6.06E+03 ppm |
| CCC(C)CC=CC(=O)O (stereo not shown) [5-methyl-2-heptenoic acid] | 4.64E+03 ppm |
| CCC(C)CCC(=O)O (racemic) [4-methylhexanoic acid] | 3.56E+03 ppm |
| CCCCC=C(C)C(=O)O [2-methyl-2-heptenoic acid] | 4.64E+03 ppm |
| C=CCC1(CC)C(=O)NC(=O)NC1=O [5-allyl-5-ethylbarbituric acid] | 4.75E+03 ppm |
| COc1c(Cl)ccc(Cl)c1C(=O)O [3,6-dichloro-2-methoxybenzoic acid] | 4.48E+03 ppm |
| O=C(O)C(=O)Nc1ccccc1 [oxanilic acid] | 8.17E+03 ppm |
| C=CCCCCC(=O)O [6-heptenoic acid] | 5.55E+03 ppm |
| CCCC=C(CC)C(=O)O [2-ethyl-2-hexenoic acid] | 6.06E+03 ppm |
| O=C(O)c1ccccc1[N+](=O)[O-] [o-nitrobenzoic acid] | 7.44E+03 ppm |
| CCCC1(CC)C(=O)NC(=O)NC1=O [5-ethyl-5-n-propylbarbituric acid] | 5.66E+03 ppm |
| O=C(O)c1ccc([N+](=O)[O-])cc1[N+](=O)[O-] [2,4-dinitrobenzoic acid] | 1.79E+04 ppm |
| O=C(O)c1ccccc1F [2-fluorobenzoic acid] | 7.15E+03 ppm |
| O=C(O)c1cccc(Br)c1[N+](=O)[O-] [3-bromo-2-nitrobenzoic acid] | 7.36E+03 ppm |
| CCCC(C)C=CC(=O)O (stereo not shown) [4-methyl-2-heptenoic acid] | 4.64E+03 ppm |
| O=C(O)C(O)c1ccccc1 (stereo not shown) [mandelic acid (almonds), mandelic acid] | 1.53E+05 ppm |
| CCC(C)CC=CC(=O)O (stereo not shown) [5-ethyl-2-hexenoic acid] | 6.06E+03 ppm |
| CCC(C=CC(=O)O)CC [4-ethyl-2-hexenoic acid] | 6.06E+03 ppm |

Same assay, conditions: temperature 100 ° C.; cited from earlier work

| Compound | solubility (ppm) |
| --- | --- |
| O=C(O)c1cc(=O)c2ccccc2[nH]1 [4-hydroxy-2-quinolinecarboxylic acid] | 8.84E+03 ppm |
| Cc1cccc(C(=O)O)c1O [2-hydroxy-3-methylbenzoic acid] | 1.15E+04 ppm |
| N[C@@H](CSCSC[C@H](N)C(=O)O)C(=O)O [djenkolic acid] | 4.98E+03 ppm |
| Cc1ccc(C(=O)O)cc1O [3-hydroxy-4-methylbenzoic acid] | 4.17E+04 ppm |

Same assay, conditions: temperature not given; cited from earlier work

| Compound | solubility (ppm) |
| --- | --- |
| CCNCCOC(=O)c1ccc(N)cc1 [4-aminobenzoic aciD-2-(ethyl-amino)ethyl ester] | 5.59E+03 ppm |
| O=C(O)c1c(O)cccc1O [2,6-dihydroxybenzoic acid] | 9.47E+03 ppm |
| Nc1ccc2cc(S(=O)(=O)O)cc(O)c2c1 [6-amino-4-hydroxy-2-naphthalenesulfonic acid] | 4.48E+03 ppm |
